The record followed here is patent US8232278B2 (Gilead Sciences, Inc., priority 2005, dated 2012).

“And” between values parts separate entries of the source, which are not always exact repeats. Equal entries are not always repeated. Where two headings read alike, the source gives them in different places.

In one data set the test system is Huh-7 HCV replicon cells. Briefly: CC50 assay in Huh-7 HCV replicon cells (CellTiter-Glo). The following applies: 3 days, 50% cytostatic concentration. Format: cell-based, human. On the procedure: (§1) The anti-HCV activity of the pyrido[3,2-d]pyrimidine derivatives of this invention was tested in a human hepatoma Huh-7 cell line harbouring a HCV replicon. The assay comprised the following steps:
(§2) Step 1: Compound Preparation and Serial Dilution
(§3) • 1. for water soluble pyrido[3,2-d]pyrimidine derivatives, a volume of 500 μL of solution in cell media (DMEM, 10% FBS, P/S, L-Glutamine) was prepared with a concentration being twice the concentration of the starting final serial dilution concentration. […] The rest of the plate, columns 2-12, was filled with 100 μL of cell media. The plate was then placed on a Precision 2000 Workstation to start the serial dilution. Compounds were diluted three times each step from column 1 to column 10. Column 11 was used as a blank control (no compound added). • 2. for pyrido[3,2-d]pyrimidine derivatives requiring DMSO to dissolve, serial dilution is performed in 50% DMSO in a 384-well plate. A solution containing a compound at 100-fold concentration of the starting final serial dilution concentration was prepared in 50% DMSO and added to the pre-specified wells in column 1 of a polypropylene 384-well plate. The plate was then placed on a Precision 2000 Workstation to start the serial dilution. After the serial dilution, a volume of 2 μL of the solution was transferred from the 384-well plate to a 96-well cell culture plate containing 100 μL of cell media on a Biomek FX Workstation. The DMSO concentration in the final assay condition was 0.5% after cells are added to the plate and the total volume in each well is brought to 200 μL. Step 2: to each well of the serial dilution plate prepared above, 100 μL of cell media containing 6000 suspended Huh-7 HCV replicon cells was added with a Multidrop workstation. The plates were incubated for 3 days at 37° C. with 5% CO2. Step 3: Detection: • a) for the EC50 assay, the media in a 96-well cell culture plate was aspirated with a Biotek EL405 plate-washer. A volume of 200 μL of a solution containing a 1:1 mixture of cell-lysis buffer (Promega, Luciferase Cell Culture Lysis 5× Reagent, cat. #E1531) and luciferase substrate solution (Promega, Luciferase Assay, cat. #E4550) was added to each well of the plate with Multidrop.
(§4) Results in table 7 are expressed by the following data: • the 50% effective concentration (EC50), i.e. the concentration that protects 50% of the cell monolayer from virus-induced cythopathic effect, and • the 50% cytostatic concentration (CC50), i.e. the concentration that results in 50% inhibition of cell growth. Table 7 further indicates the nature of substituents being present in positions 2, 4 and 6 of the pyrido[3,2-d]pyrimidine derivatives of the invention.
For orientation: In antiviral work, replicon cells carry a viral genome segment that copies itself.

In another data set the test system is HCV replicon. The data set can be described thus: Anti-HCV assay / replicon assay (EC50, luciferase read-out). The data set is classed as cell-based, hepatitis C virus (HCV). The following applies: for CC50/EC50: CC50/EC50 ratio (selectivity index). On the procedure:
as §1, §2, §3, §4

The mark [1] stands for this setting: human hepatoma Huh-7 cell line harbouring a HCV replicon, 3 days, luciferase luminescence, read-out: EC50.

In the case of `Cc1cccc(NC(=O)N2CCN(c3nc(N)nc4ccc(-c5ccccc5)nc34)CC2)c1` [Example 389, 2-amino-4-[N-(3-methyl-phenyl-carbamoyl)-piperazin-1-yl]-6-phenyl-pyrido[3,2-d]pyrimidine], the CC50 with Huh-7 HCV replicon cells is 4200 nM. Also, the CC50/EC50 in the data set on HCV replicon amounted to 200. The EC50 on HCV replicon (setting [1]) was found to be 21 nM.
`COc1ccc(-c2ccc3nc(N)nc(N4CCN(Cc5ccc6c(c5)OCO6)CC4)c3n2)cc1OC` [Example 55, 2-amino-4-(1-piperonyl-piperazin-1-yl)-6-(3,4-dimethoxyphenyl)-pyrido[3,2-d]pyrimidine] yielded a CC50 in the data set with Huh-7 HCV replicon cells of 25100 nM. In the data set with HCV replicon, the CC50/EC50 is 74. The EC50 on HCV replicon (setting [1]) turned out to be 340 nM.
`Nc1nc(N2CCN(C(=O)COc3ccc(Cl)cc3)CC2)c2nc(-c3ccoc3)ccc2n1` [Example 381, 2-amino-4-[N-(4-chlorophenoxyacetyl)piperazin-1-yl]-6-(furan-3-yl)pyrido-[3,2-d]pyrimidine] yielded a CC50 in the data set with Huh-7 HCV replicon cells of 9100 nM. For the same compound, in the data set on HCV replicon, the CC50/EC50 is given as 149. Besides, the EC50 on HCV replicon (setting [1]) was 61 nM.
The compound `Nc1nc(N2CCN(C(=O)COc3ccc(Cl)cc3)CC2)c2nc(-c3ccc4c(c3)OCCO4)ccc2n1` [Example 189, 2-amino-4-[N-(4-chlorophenoxy-acetyl)-piperazin-1-yl]-6-(1,4-benzodioxane)-pyrido[3,2-d]pyrimidine] displayed a CC50 in the data set on Huh-7 HCV replicon cells of 430 nM. Besides, the CC50/EC50 in the data set on HCV replicon is listed as 50. On HCV replicon (setting [1]), the EC50 amounted to 9 nM.
In the data set with Huh-7 HCV replicon cells, “2-amino-4-[(N-3-chloro-phenyl-carbamoyl)-piperazin-1-yl]-6-(3-methyl-4-methoxy-phenyl)pyrido-[3,2-d]pyrimidine [Example 168]” yielded a CC50 of 2600 nM. Moreover, the CC50/EC50 in the data set on HCV replicon is on record as 97. In addition, at HCV replicon (setting [1]), the 50% effective concentration (EC50) worked out at 27 nM.
Consider “2-amino-4-[N-3-chloro-phenyl-carbamoyl)-piperazin-1-yl]-6-(3,4-(methylenedioxy)phenyl)pyrido[3,2-d]pyrimidine [Example 173]”, for which the midpoint of cytotoxicity with Huh-7 HCV replicon cells, the CC50, lay at 3400 nM. Also, the CC50/EC50 with HCV replicon is reported as 143. Moreover, the EC50 on HCV replicon (setting [1]) came out at 24 nM.
With `COc1ccc(-c2ccc3nc(N)nc(N4CCN(c5ccccn5)CC4)c3n2)cc1OC` [Example 52, 2-amino-4-(2-pyridyl-piperazin-1-yl)-6-(3,4-dimethoxyphenyl)-pyrido[3,2-d]pyrimidine], the midpoint of cytotoxicity in the data set with Huh-7 HCV replicon cells, the CC50, lay at 3000 nM. The CC50/EC50 with HCV replicon came out at 72. Besides, the EC50 at HCV replicon (setting [1]) amounted to 42 nM.
On the same counts, the results for `CCOc1nc(N)nc2ccc(-c3ccc(OC)c(OC)c3)nc12` [Example 307, 2-amino-4-ethoxy-6-(3,4-dimethoxy)pyrido[3,2-d]pyrimidine] are 50100 nM, 264 and 190 nM.
For the compound `COc1ccc(-c2ccc3nc(Nc4ccc(C)cc4)nc(N4CCN(C(=O)Nc5cccc(C)c5)CC4)c3n2)cc1OC` [Example 94, 2-(p-tolylamino)-4-[(N-3-methylphenylcarbamoyl)-piperazin-1-yl]-6-(3,4-dimethoxy-phenyl)-pyrido[3,2-d]pyrimidine], in the data set on Huh-7 HCV replicon cells, the CC50 was determined as 25100 nM. For the same compound, the CC50/EC50 in the data set on HCV replicon amounted to 339. In addition, the EC50 at HCV replicon (setting [1]) came out at 74 nM.
Consider “4-[(N-4-chloro-phenylcarbamoyl)-piperazin-1-yl]-6-(3-methyl-4-methoxyphenyl)-pyrido[3,2-d]pyrimidine [Example 121]”, for which it took 19400 nM to reach half-maximal cytotoxicity in the data set on Huh-7 HCV replicon cells (CC50). For the same compound, the CC50/EC50 in the data set on HCV replicon was 162. Besides, the EC50 on HCV replicon (setting [1]) was determined as 120 nM.
In turn, `Nc1nc(N2CCN(C(=O)COc3ccc(Cl)cc3)CC2)c2nc(-c3cccc(Cl)c3)ccc2n1` [Example 385, 2-amino-4-[N-(4-chlorophenoxyacetyl)piperazin-1-yl]-6-(3-chlorophenyl)pyrido-[3,2-d]pyrimidine] had a CC50 in the data set on Huh-7 HCV replicon cells of 7400 nM. The CC50/EC50 in the data set with HCV replicon is 122. In addition, the EC50 at HCV replicon (setting [1]) was 61 nM.
On to `COc1cc(-c2ccc3nc(N)nc(N4CCN(C(=O)Nc5ccc(F)cc5)CC4)c3n2)ccc1OC(C)C` [Example 106, 2-amino-4-[(N-4-fluoro-phenyl-carbamoyl)-piperazin-1-yl]-6-(4-isopropoxy-3-methoxy-phenyl)-pyrido[3,2-d]pyrimidine], for which, in the data set on Huh-7 HCV replicon cells, the CC50 came to 3600 nM. For the same compound, the CC50/EC50 in the data set on HCV replicon was found to be 102. On HCV replicon (setting [1]), the EC50 came to 35 nM.
On the same counts, the results for `Nc1nc(N2CCN(C(=O)COc3ccc(Cl)cc3)CC2)c2nc(-c3ccncc3)ccc2n1` [Example 386, 2-amino-4-[N-(4-chlorophenoxyacetyl)piperazin-1-yl]-6-(pyridin-4-yl)pyrido-[3,2-d]pyrimidine] are 6000 nM, 4585 and 1 nM.
The compound `Cc1cccc(NC(=O)N2CCN(c3nc(N)nc4ccc(-c5ccc6c(c5)OCCO6)nc34)CC2)c1` [Example 192, 2-amino-4-[N-(3-methyl-phenyl-carbamoyl)-piperazin-1-yl]-6-(1,4-benzodioxane)-pyrido[3,2-d]pyrimidine] had a CC50 in the data set with Huh-7 HCV replicon cells of 690 nM. Also, the CC50/EC50 in the data set with HCV replicon stood at 147. In addition, on HCV replicon (setting [1]), the EC50 is 5 nM.
Consider `CCOc1nc(N)nc2ccc(-c3ccc(N)cc3)nc12` [Example 465, 6-(4-amino-phenyl)-4-ethoxy-pyrido[3,2-d]pyrimidin-2-ylamine], for which the midpoint of cytotoxicity in the data set on Huh-7 HCV replicon cells, the CC50, lay at 50100 nM. Besides, in the data set on HCV replicon, the CC50/EC50 worked out at 145. In addition, the EC50 in the data set with HCV replicon (Hepatitis C virus, Huh-7, 72 h) amounted to 346 nM.
As to `COc1ccc(-c2ccc3nc(N)nc(N4CCN(C(=O)Nc5cccc(Cl)c5)CC4)c3n2)cc1OC` [Example 63, 2-amino-4(N-3-chloro-phenyl-carbamoyl-piperazin-1-yl)-6-(3,4-dimethoxyphenyl)-pyrido[3,2-d]pyrimidine], the midpoint of cytotoxicity in the data set with Huh-7 HCV replicon cells, the CC50, lay at 700 nM. The CC50/EC50 in the data set with HCV replicon is 106. Besides, on HCV replicon (setting [1]), the EC50 was 7 nM.
Turning to `Nc1nc(N2CCN(C(=O)COc3ccc(Cl)cc3)CC2)c2nc(-c3ccc(Cl)cc3)ccc2n1` [Example 384, 2-amino-4-[N-(4-chlorophenoxyacetyl)piperazin-1-yl]-6-(4-chlorophenyl)pyrido-[3,2-d]pyrimidine], in the data set with Huh-7 HCV replicon cells, the CC50 was 12200 nM and 7900 nM. Besides, the CC50/EC50 in the data set with HCV replicon is 231 and 148. Also, the EC50 on HCV replicon (setting [1]) was 53 nM.
Turning to `Cc1cccc(NC(=O)N2CCN(c3nc(N)nc4ccc(-c5ccc(F)cc5)nc34)CC2)c1` [Example 390, 2-amino-4-[N-(3-methylphenyl-carbamoyl)-piperazin-1-yl]-6-(4-fluorophenyl)-pyrido[3,2-d]pyrimidine], the CC50 in the data set on Huh-7 HCV replicon cells worked out at 3500 nM. In addition, the CC50/EC50 in the data set on HCV replicon amounted to 575. The EC50 at HCV replicon (setting [1]) was found to be 6 nM.
`CCOc1nc(N)nc2ccc(-c3ccc(F)c(Cl)c3)nc12` [Example 462, 6-(3-chloro-4-fluoro-phenyl)-4-ethoxy-pyrido[3,2-d]pyrimidin-2-ylamine] came in with a CC50 in the data set with Huh-7 HCV replicon cells of 50100 nM. Moreover, the CC50/EC50 in the data set on HCV replicon was determined as 117. In addition, the EC50 in the data set on HCV replicon (Hepatitis C virus, Huh-7, 72 h) was 428 nM.
Turning to `COc1ccc(-c2ccc3nc(Cl)nc(N4CCN(C(=O)Nc5cccc(C)c5)CC4)c3n2)cc1OC` [Example 14], the CC50 with Huh-7 HCV replicon cells came to 25100 nM. Moreover, in the data set on HCV replicon, the CC50/EC50 amounted to 167. In addition, on HCV replicon (setting [1]), the EC50 is 150 nM.
Compound “4-ethoxy-6-(3-fluoro-4-methoxy-phenyl)-pyrido[3,2-d]pyrimidin-2-ylamine [Example 459]” had a half-maximal cytotoxic concentration (CC50) with Huh-7 HCV replicon cells of 25100 nM. For the same compound, the CC50/EC50 with HCV replicon is recorded as 78. In addition, the EC50 on HCV replicon (setting [1]) stood at 320 nM.
`Nc1nc(N2CCN(C(=O)COc3ccc(Cl)cc3)CC2)c2nc(-c3ccc(Cl)c(Cl)c3)ccc2n1` [Example 188, 2-amino-4-[N-(4-chlorophenoxy-acetyl)-piperazin-1-yl]-6-(3,4-dichlorophenyl)-pyrido[3,2-d]pyrimidine]: the CC50 in the data set on Huh-7 HCV replicon cells was 12300 nM. Further, the CC50/EC50 in the data set with HCV replicon was found to be 211. The EC50 on HCV replicon (setting [1]) came out at 58 nM.
Compound `CCCOc1nc(N)nc2ccc(-c3ccccc3F)nc12` [Example 282, 2-amino-4-n-propoxy-6-(o-fluorophenyl)-pyrido[3,2-d]pyrimidine] displayed a CC50 in the data set with Huh-7 HCV replicon cells of 50100 nM. Besides, in the data set on HCV replicon, the CC50/EC50 turned out to be 89. In the data set with HCV replicon (Hepatitis C virus, 72 h, human hepatoma Huh-7 cell line harbouring a HCV replicon, 3 days, luciferase luminescence, read-out: EC50), the EC50 is 560 nM.
On to “2-amino-4-(phenoxy-ethyl-piperazin-1-yl)-6-(3,4-dimethoxyphenyl)-pyrido[3,2-d]pyrimidine [Example 50]”, for which, in the data set on Huh-7 HCV replicon cells, the midpoint of cytotoxicity, the CC50, lay at 18000 nM. In addition, in the data set on HCV replicon, the CC50/EC50 worked out at 310. In addition, the EC50 on HCV replicon (setting [1]) is 58 nM.

In general, CC50 refers to the concentration at which the toxic effect on the cells reaches its halfway point. Broadly, the EC50 is the concentration at which the effect is half-maximal.
